Experiment [1] has as its system Plasmodium falciparum strain NF54. Kind of experiment: Growth inhibition of Plasmodium falciparum NF54 (chloroquine-sensitive) in vitro, [G-3H]-hypoxanthin incorporation. Type of experiment: cell-based. Particulars: chloroquine-sensitive strain NF54, 72 h, read-out: IC50 for P. falciparum NF54. In short, it runs like this: (§1)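 Asynchronous intraerythrocytic cultures in human A+ erythrocytes (0.7% parasitemia, 2.5% suspension) in RPMI 1640 with HEPES, NaHCO3 and human serum, exposed to compound titrated over 6-7 steps for 72 h at 37° C, 3% O2. Growth by [G-3H]-hypoxanthin incorporation against untreated controls; IC50 by logit regression.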

The subject of experiment [2] is Plasmodium falciparum K1. Description: Growth inhibition of Plasmodium falciparum K1 (chloroquine-resistant) in vitro, [G-3H]-hypoxanthin incorporation. It is filed as cell-based, Plasmodium falciparum (strain K1). The settings on record: for IC50: Plasmodium falciparum, K1, 72 h, read-out: IC50 for P. falciparum K1; for Resistance index: ratio of the IC50 for K1 and the IC50 for NF54. In a few lines:
as §1

Experiment [3] has as its system Plasmodium berghei. Kind of experiment: animal or person. Type of experiment: in vivo, Plasmodium berghei (strain ANKA) in mice. Particulars: Plasmodium berghei, mice, blood smears 48 h after treatment. In short, it runs like this: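 Male albino mice (~25 g) infected i.v. on D0 with P. berghei ANKA (0.2 ml of 10^8 parasitized erythrocytes/ml); single s.c. and p.o. dose 24 h post-infection, 10 mg/kg screen then titration.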

Where [4] appears, read: po, single peroral dose of 10 mg/kg, read-out: Growth inhibition in % after po administration (GI%, percentage reduction of the parasitemia).
The mark [5] stands for this setting: sc, single subcutaneous dose of 10 mg/kg, read-out: Growth inhibition in % after sc administration (GI%, percentage reduction of the parasitemia).

Our source for the IC50, Resistance index and inhibition in vivo values is patent publication US5948791A, “Quinoline derivatives for treating malaria” (Hoffmann-La Roche Inc., priority 1995, dated 1999).

Where two headings read alike, the source gives them in different places.

On to `COc1cc(CN[C@H]2CC[C@@H](Nc3ccnc4cc(Cl)ccc34)CC2)cc(OC)c1.Cl.Cl` [Example 82, cis-N1-(7-Chloro-quinolin-4-yl)-N4-(3,5-dimethoxy-benzyl)-cyclohexane-1,4-diamine dihydrochloride], for which the figures for the IC50 in experiment [1] and in experiment [2] were 5.7 ng/mL and 8.5 ng/mL, respectively. The Resistance index in experiment [2] was 1.5. The inhibition in vivo at 10 mg/kg in experiment [3] (setting [4]) and in experiment [3] (setting [5]) was 99.9% each time.

On to `CSc1ccc(CN[C@H]2CC[C@@H](Nc3ccnc4cc(Cl)ccc34)CC2)cc1.Cl.Cl` [Example 83, cis-N1-(7-Chloro-quinolin-4-yl)-N4-(4-methylsulphanyl-benzyl)-cyclohexane-1,4-diamine dihydrochloride], for which the IC50 came out at 8.6 ng/mL in experiment [1] and 5.9 ng/mL in experiment [2]. For the same compound, the Resistance index in experiment [2] is listed as 0.7. In addition, the inhibition in vivo at 10 mg/kg in experiment [3] (setting [4]) and in experiment [3] (setting [5]) was 100% in each case.

Consider `Cl.Cl.O=[N+]([O-])c1ccc(CN[C@H]2CC[C@@H](Nc3ccnc4cc(Cl)ccc34)CC2)cc1` [Example 84, cis-N1-(7-Chloro-quinolin-4-yl)-N4-(4-nitro-benzyl)-cyclohexane-1,4-diamine dihydrochloride], for which the IC50 in experiment [1] came out at 6.9 ng/mL; in experiment [2] it was 7.8 ng/mL. For the same compound, the Resistance index in experiment [2] came to 1.1. Also, the inhibition in vivo at 10 mg/kg in experiment [3] (setting [4]) and in experiment [3] (setting [5]) was 100% in each case.

For the compound `CCN(CC)c1ccc(CN[C@H]2CC[C@@H](Nc3ccnc4cc(Cl)ccc34)CC2)cc1.Cl.Cl.Cl` [Example 85, cis-N1-(7-Chloro-quinolin-4-yl)-N4-(4-diethylamino-benzyl)-cyclohexane-1,4-diamine trihydrochloride], the IC50 worked out at 4.6 ng/mL in experiment [1] and 3.9 ng/mL in experiment [2]. Besides, the Resistance index in experiment [2] came out at 0.8. The inhibition in vivo at 10 mg/kg in experiment [3] (setting [4]) was 99.9%; in experiment [3] (setting [5]) it was 100%.

On to `Cl.Cl.N#Cc1ccc(CN[C@H]2CC[C@@H](Nc3ccnc4cc(Cl)ccc34)CC2)cc1` [Example 86, cis-N1-(7-Chloro-quinolin-4-yl)-N4-(4-cyano-benzyl)-cyclohexane-1,4-diamine dihydrochloride], for which the IC50 in experiment [1] was determined as 5.6 ng/mL; in experiment [2], 7 ng/mL. Moreover, the Resistance index in experiment [2] stood at 1.3. In addition, the inhibition in vivo at 10 mg/kg in experiment [3] (setting [4]) and in experiment [3] (setting [5]) was 99.9% throughout.

Regarding `Cl.Cl.Clc1ccc2c(N[C@H]3CC[C@@H](NCc4ccc(-c5ccccc5)cc4)CC3)ccnc2c1` [Example 87, cis-N1-(7-Chloro-quinolin-4-yl)-N4-(biphenyl-4-yl-methyl)-cyclohexane-1,4-diamine dihydrochloride], the IC50 came to 6.2 ng/mL in experiment [1] and 10.2 ng/mL in experiment [2]. The Resistance index in experiment [2] is reported as 1.6. In addition, the inhibition in vivo at 10 mg/kg in experiment [3] (setting [4]) was found to be 98%; in experiment [3] (setting [5]), 94%.

For the compound `COc1ccc(CCN[C@H]2CC[C@H](Nc3ccnc4cc(Cl)ccc34)CC2)cc1OC.Cl.Cl` [Example 88, trans-N1-(7-Chloro-quinolin-4-yl)-N4-[2-(3,4-dimethoxy-phenyl)-ethyl]-cyclohexane-1,4-diamine dihydrochloride], the values for the IC50 in experiment [1] and in experiment [2] were 7.4 ng/mL and 21.4 ng/mL, respectively. Besides, the Resistance index in experiment [2] is reported as 2.9. Also, the figures for the inhibition in vivo at 10 mg/kg in experiment [3] (setting [4]) and in experiment [3] (setting [5]) were 66% and 99.9%, respectively.

Regarding `Cl.Cl.Clc1ccc2c(N[C@H]3CC[C@H](NCCc4ccccc4)CC3)ccnc2c1` [Example 89, trans-N1-(7-Chloro-quinolin-4-yl)-N4-phenethyl-cyclohexane-1,4-diamine dihydrochloride], the IC50 amounted to 2.2 ng/mL in experiment [1] and 17.5 ng/mL in experiment [2]. Further, the Resistance index in experiment [2] was found to be 8.0. The inhibition in vivo at 10 mg/kg in experiment [3] (setting [4]) amounted to 99.8%; in experiment [3] (setting [5]), 99.9%.

In the case of `COc1cc(N[C@H]2CC[C@H](Nc3ccnc4cc(Cl)ccc34)CC2)cc(OC)c1.Cl` [Example 90, trans-N1-(7-Chloro-quinolin-4-yl)-N4-(3,5-dimethoxy-phenyl)-cyclohexane-1,4-diamine hydrochloride], the values for the concentration for half-maximal inhibition (IC50) in experiment [1] and in experiment [2] were 49.7 ng/mL and 98.8 ng/mL, respectively. For the same compound, the Resistance index in experiment [2] is recorded as 2.0. For the same compound, the inhibition in vivo at 10 mg/kg stood at 45% in experiment [3] (setting [4]) and 60% in experiment [3] (setting [5]).

As for `Cl.Cl.Clc1ccc(CCN[C@H]2CC[C@H](Nc3ccnc4cc(Cl)ccc34)CC2)c(Cl)c1` [Example 91, trans-N1-(7-Chloro-quinolin-4-yl)-N4-[2-(2,4-dichloro-phenyl)-ethyl]-cyclohexane-1,4-diamine dihydrochloride], the IC50 in experiment [1] came out at 3.4 ng/mL; in experiment [2], 10.9 ng/mL. Also, in experiment [2], the Resistance index is 3.2. For the same compound, the inhibition in vivo at 10 mg/kg in experiment [3] (setting [4]) was 88%; in experiment [3] (setting [5]), 86%.

In the case of `COc1ccc(CCN[C@H]2CC[C@H](Nc3ccnc4cc(Cl)ccc34)CC2)cc1.Cl.Cl` [Example 92, trans-N1-(7-Chloro-quinolin-4-yl)-N4-[2-(4-methoxy-phenyl)-ethyl]-cyclohexane-1,4-diamine dihydrochloride], the figures for the IC50 in experiment [1] and in experiment [2] were 2.2 ng/mL and 8 ng/mL, respectively. In addition, the Resistance index in experiment [2] is recorded as 3.6. Also, the figures for the inhibition in vivo at 10 mg/kg in experiment [3] (setting [4]) and in experiment [3] (setting [5]) were 85% and 99.7%, respectively.

Take `Cl.Cl.O=[N+]([O-])c1ccc(CCN[C@H]2CC[C@H](Nc3ccnc4cc(Cl)ccc34)CC2)cc1` [Example 93, trans-N1-(7-Chloro-quinolin-4-yl)-N4-[2-(4-nitro-phenyl)-ethyl]-cyclohexane-1,4-diamine dihydrochloride]: the IC50 in experiment [1] is 3.4 ng/mL; in experiment [2], 8.3 ng/mL. Further, the Resistance index in experiment [2] stood at 2.4. Besides, the inhibition in vivo at 10 mg/kg in experiment [3] (setting [4]) was 98%; in experiment [3] (setting [5]) it was 99%.

Turning to `COc1cc(CCN[C@H]2CC[C@H](Nc3ccnc4cc(Cl)ccc34)CC2)cc(OC)c1.Cl.Cl` [Example 94, trans-N1-(7-Chloro-quinolin-4-yl)-N4-[2-(3,5-dimethoxy-phenyl)-ethyl]-cyclohexane-1,4-diamine dihydrochloride], the IC50 in experiment [1] is 2.9 ng/mL; in experiment [2], 9.8 ng/mL. Besides, the Resistance index in experiment [2] came to 3.4. Also, the inhibition in vivo at 10 mg/kg in experiment [3] (setting [4]) came to 99%; in experiment [3] (setting [5]), 99.9%.

Regarding `Cl.Cl.Clc1ccc2c(N[C@H]3CC[C@H](NCCc4ccc5c(c4)OCO5)CC3)ccnc2c1` [Example 95, trans-N1-(2-Benzo[1,3]dioxol-5-yl-ethyl)-N4-(7-chloro-quinolin-4-yl)-cyclohexane-1,4-diamine dihydrochloride], the IC50 in experiment [1] turned out to be 2.7 ng/mL; in experiment [2], 9.3 ng/mL. Further, the Resistance index in experiment [2] was found to be 3.4. Also, the inhibition in vivo at 10 mg/kg is 98% in experiment [3] (setting [4]) and 99.7% in experiment [3] (setting [5]).

On to `Cl.Cl.Clc1cccc(CCN[C@H]2CC[C@H](Nc3ccnc4cc(Cl)ccc34)CC2)c1` [Example 96, trans-N1-[2-(3-Chloro-phenyl)-ethyl]-N4-(7-chloro-quinolin-4-yl)-cyclohexane-1,4-diamine dihydrochloride], for which the IC50 in experiment [1] came to 1.6 ng/mL; in experiment [2] it was 9 ng/mL. Moreover, the Resistance index in experiment [2] came to 5.6. The results for the inhibition in vivo at 10 mg/kg in experiment [3] (setting [4]) and in experiment [3] (setting [5]) were 95% and 98%, respectively.

Regarding `COc1ccc(OC)c(CCN[C@H]2CC[C@H](Nc3ccnc4cc(Cl)ccc34)CC2)c1.Cl.Cl` [Example 97, trans-N1-(7-Chloro-quinolin-4-yl)-N4-[2-(2,5-dimethoxy-phenyl)-ethyl]-cyclohexane-1,4-diamine dihydrochloride], the IC50 was determined as 4.1 ng/mL in experiment [1] and 17.8 ng/mL in experiment [2]. In addition, in experiment [2], the Resistance index is 4.3. Besides, the values for the inhibition in vivo at 10 mg/kg in experiment [3] (setting [4]) and in experiment [3] (setting [5]) were 49% and 99%, respectively.

Regarding `Cl.Cl.Clc1ccc2c(N[C@H]3CC[C@H](NCCc4ccc(Oc5ccccc5)cc4)CC3)ccnc2c1` [Example 98, trans-N1-(7-Chloro-quinolin-4-yl)-N4-[2-(4-phenoxy-phenyl)-ethyl]-cyclohexane-1,4-diamine dihydrochloride], the IC50 came out at 4.5 ng/mL in experiment [1] and 8.5 ng/mL in experiment [2]. Also, the Resistance index in experiment [2] stood at 1.9. Also, the inhibition in vivo at 10 mg/kg in experiment [3] (setting [4]) stood at 50%; in experiment [3] (setting [5]), 93%.

As for `Cl.Cl.Clc1ccc2c(N[C@H]3CC[C@H](NCCc4ccc(Cl)c(Cl)c4)CC3)ccnc2c1` [Example 99, trans-N1-(7-Chloro-quinolin-4-yl)-N4-[2-(3,4-dichloro-phenyl)-ethyl]-cyclohexane-1,4-diamine dihydrochloride], the IC50 came to 3.3 ng/mL in experiment [1] and 4.2 ng/mL in experiment [2]. Further, the Resistance index in experiment [2] is listed as 1.3. In addition, the figures for the inhibition in vivo at 10 mg/kg in experiment [3] (setting [4]) and in experiment [3] (setting [5]) were 91% and 96%, respectively.

As for `COc1ccc(CN[C@H]2CC[C@H](Nc3ccnc4cc(Cl)ccc34)CC2)cc1.Cl.Cl` [Example 100, trans N1-(7-Chloro-quinolin-4-yl)-N4-(4-methoxy-benzyl)-cyclohexane-1,4-diamine dihydrochloride], the IC50 in experiment [1] turned out to be 1.9 ng/mL; in experiment [2], 4 ng/mL. Besides, in experiment [2], the Resistance index was 2.1. The inhibition in vivo at 10 mg/kg was 14% in experiment [3] (setting [4]) and 99% in experiment [3] (setting [5]).
